Key:
[1] = Stability test, left open at 25° C., content of 25-hydroxycholecalciferol by HPLC; type: physicochemical; conditions: for Content of 25-hydroxycholecalciferol: left open at 25° C.
Procedure: 6. Stability Test the 25-hydroxycholecalciferol monohydrate crystal prepared in the present embodiment was left open at 25° C., and a content of 25-hydroxycholecalciferol contained therein was tested after one month, three months and six months respectively, and meanwhile, 25-hydroxycholecalciferol was used as a control example, and the results were shown in Table 2. The content of 25-hydroxycholecalciferol was measured by the following method: taking a sample to prepare a solution of about 10 μg/mL, injecting 20 μL for a HPLC analysis, and calculating the content thereof according to an external standard method. Test conditions of the HPLC were as follows: chromatographic column: C18 column; internal diameter: 4.6 mm; length: 150 mm, particle size: 5 μm; detection wavelength: 265 nm; temperature of column: 30° C.; flow rate: 1.5 mL/min (which may be adjusted according to desired retention time and a degree of separation of 25-hydroxycholecalciferol and a 25-hydroxycholecalciferol precursor); injection volume: 20 uL; and recording time: 2 times the retention time of main peak.

[2] = cited from earlier work

Row | Loss of 25-hydroxycholecalciferol (in words) ([1]; after six months of being left open at 25° C.) | Content of 25-hydroxycholecalciferol ([1]; 0 day) [%] | Content of 25-hydroxycholecalciferol ([1]; one month) [%] | Content of 25-hydroxycholecalciferol ([1]; six months) [%] | Content of 25-hydroxycholecalciferol ([1]; three months) [%] | Structure (SMILES) | solubility in diethyl ether ([2]; diethyl ether) | solubility in dimethyl sulfoxide ([2]; dimethyl sulfoxide) | solubility in ethanol ([2]; ethanol) | solubility in methanol ([2]; methanol) | solubility in water ([2]; water)
1 | almost no loss | 99.60 | 99.05 | 96.59 | 98.46 | C=C1CC[C@H](O)C/C1=C/C=C1\CCC[C@]2(C)[C@@H]([C@H](C)CCCC(C)(C)O)CC[C@@H]12 [25-hydroxycholecalciferol monohydrate] |  |  |  |  | 
2 |  | 99.23 | 65.03 | 29.61 | 47.65 | C=C1CC[C@H](O)C/C1=C/C=C1\CCC[C@]2(C)[C@@H]([C@H](C)CCCC(C)(C)O)CC[C@@H]12 [25-hydroxycholecalciferol] | slightly soluble | easily soluble | easily soluble | easily soluble | almost insoluble
